The term melting point denotes the temperature, or range, at which the solid turns liquid.

The compound `O=c1c(-c2cccc(Cl)c2)coc2c(O)c(O)ccc12` had a melting point of 258 °C. The result for `CCc1c(CCNC(=O)CCCCC(=O)NC(C)(C)Cc2ccc3c(c2CC)OCO3)ccc(OC)c1OC` reads 103 to 104 °C. Turning to `Cc1cc(I)ccc1NC1=CC2=NCN(C)C2=CC1(F)C(=O)NOCC(O)CO` (stereo not drawn), the melting point was in the range of 212 to 213 °C. Consider `CCOC(=O)c1ccc(-c2coc(-c3ccccc3)n2)cc1`, for which the melting point is 110 to 112 °C. `OC1CSC(Oc2cccc3ccoc23)C(O)C1O` (stereo not drawn) displayed a melting point of 160 °C. Consider `CN(CCOc1cccc(Cl)c1CN)Cc1ccccc1`, for which the melting point came to 85 °C.

Turning to `COc1ccc(-c2nc(C)nn2-c2ccc(S(N)(=O)=O)cn2)cc1`, the melting point is 191 to 192 °C. Compound `O=S(=O)(Nc1ccc2oncc2c1)c1cc(Cl)ccc1Cl` returned a melting point of 173 to 174 °C. The result for `Cc1ccc(N(c2ccc(C)cc2)c2ccc(C=Cc3ccccc3O)cc2)cc1` reads 136 to 138 °C; that for `BrCc1ccc(-c2onc3ccccc23)cc1`, 146 to 147 °C; that for `COC(=O)CC[C@H](NC(=O)OCc1ccccc1)C(=O)O`, 61 to 63 °C.

Compound `CC(C)N(CCN1C(=O)C(=O)c2cc(Cl)ccc21)C(C)C` gave a melting point of 99 to 101 °C. `Cc1cccc(-c2nc(CCOc3ccc(/C=C/CO)cc3)c(C)o2)c1` yielded a melting point of 116 to 117 °C. Compound `O=C1NCCC[C@@H]1NS(=O)(=O)c1ccccc1F` returned a melting point of 180 to 183 °C. Take `COc1nc(N)nc2c1ncn2CCC(CO)CO`: the melting point is 84 to 86 °C. With `Cc1cc2ncc(C(=O)O)c(N(C)S(=O)(=O)c3ccc(Oc4ccncc4)cc3)n2n1`, the melting point lay within 246 to 248 °C. Turning to `NC(=O)C1(O)c2ccccc2S(=O)(=O)N1Cc1ccc(Br)cc1F` (stereo not drawn), the melting point fell in the range of 182 to 184 °C. `Cc1cc(C)cc(P(=O)(c2cc(C)cc(C)c2)c2ccc3ccccc3c2-c2c(P(=O)(c3cc(C)cc(C)c3)c3cc(C)cc(C)c3)ccc3ccccc23)c1`: the melting point fell in the range of 287 to 290 °C. The result for `CC(C)n1nc(-c2cc(C(N)=O)cnc2-c2ccccc2)ccc1=O` reads 229 to 230 °C. `COc1ccc(-c2ccc(C(=O)Nc3ccc4cc(CN5CCCC5)cnc4c3C)c(F)c2)cc1`: the melting point lay within 164 to 166 °C. Compound `Cc1c(C(=O)O)ccc(Cl)c1Cl` showed a melting point of 174 to 175 °C.

The compound `COc1ccc(OC)c(C2CC=CCC2[N+](=O)[O-])c1` (stereo not drawn) displayed a melting point of 73 to 75 °C. For `CCOCn1c(S(=O)(=O)C(F)(F)C(F)Cl)c(C#N)c2ccccc21` (stereo not drawn), the melting point lay in the range of 97 to 100 °C. For `O=c1ccc(-c2c(-c3ccccc3)nn3ccccc23)nn1C1CCN(Cc2ccccc2)CC1`, the melting point was 184 to 185 °C.

Compound `CCCCn1c(=O)n(CCC)c(=O)c2c3n(nc21)CCCN3C` returned a melting point of 94 to 98 °C.

Turning to `CCn1c(=O)[nH]c2cc(NC(C)=O)ccc21`, the melting point is 247 to 249 °C. Under `COc1nc(C)cnc1NS(=O)(=O)c1cccnc1-c1ccc(OCC(C)(C)O)cc1` stands 156 to 157 °C. The result for `CCCCCCCOC(=O)C(=C1NCCCS1)[N+](=O)[O-]` reads 59 to 60 °C; that for `O=C1NC(=O)C(c2ccc(Cl)o2)O1` (stereo not drawn), 112 to 114 °C; that for `Cc1cccc(-n2ncc(-c3ccc(S(C)(=O)=O)cc3)c(-c3ccc(F)cc3)c2=O)c1`, 213 to 216 °C. Compound `CN(C)C1CCC(Nc2ncc3ncnc(Nc4ccc(F)c(Cl)c4)c3n2)CC1` (stereo not drawn) returned a melting point of 178 to 180 °C. Under `O=C(O)Cc1c(C(=O)c2cccc(F)c2)[nH]c2cc(Cl)ccc12` stands 278 to 281 °C; under `Cc1nc2c3c(c(C(=O)N(C)CC(C)O)cc2n1C)CCC1(Cc2ccccc2C1)N3` (stereo not drawn), 258 to 259 °C. `CCCn1ccc(-c2ccc(C(=O)N3Cc4cccn4Cc4ccccc43)cc2)n1` registered a melting point of 159 to 161 °C.

The compound `CC(C)(C)c1cc(SCc2ccc(-c3nnn[nH]3)cc2)cc(C(C)(C)C)c1` displayed a melting point of 187 to 189 °C. Under `CNCC(O)COc1cccc(Nc2cc(Nc3cccc(C)c3)ncn2)c1` (stereo not drawn) stands 88 to 90 °C; under `CCC(O)(c1ccccc1)c1cc(C)ccc1C` (stereo not drawn), 38 to 39 °C. Compound `CNC(=O)c1cccc2c1C1(COc3cc4c(cc31)OCCO4)C(=O)N2C` (stereo not drawn) registered a melting point of 120 to 122 °C. The compound `CC(=O)N[C@H]1CC[C@H](CCN2CCC(c3cccc4c3CCO4)CC2)CC1` registered a melting point of 183 °C.

Take `CCn1nc2c(N)nc3ccccc3c2c1CCCCO`: the melting point fell in the range of 159 to 160 °C. For `CCCC(=O)N(Cc1ccc(-c2ccccc2-c2nc(=O)s[nH]2)cc1)c1sc(C)cc1C(=O)OC`, the melting point lay within 131 to 132 °C. `CCCCCCCCC=CCCCCCCCCCCCCNC(=O)C=CC(=O)O` registered a melting point of 55 °C. `CC(C)=Cc1ccc(-c2ccc(CCCI)cc2)cc1` registered a melting point of 58 to 61 °C. Under `COc1nc2cc(Cl)c(Cl)cc2nc1S(C)(=O)=O` stands 216 to 219 °C; under `COc1ccc(CC(=O)Nc2c(C)c(C)c3c(c2C)C(c2ccc(C(C)C)cc2)CO3)cc1` (stereo not drawn), 166 to 167 °C. The compound `COc1ccc2c(c1)c1c3c(c(-c4ccccc4OC)cc1n2CCCO)C(=O)NC3=O` came in with a melting point of 223 to 225 °C.

Regarding `CC(=O)C1C(=O)N(CC2CC2)C(=O)N(c2ccccc2)C1=O` (stereo not drawn), the melting point lay within 91 to 95 °C.

`CCCCCCCCCCC/C=C\c1c[nH]c(C(=O)OC)c1` registered a melting point of 51 to 52 °C. Compound `CC(=O)Nc1ccc(C(=O)c2ccncc2)cc1` gave a melting point of 215 °C.

Regarding `C#Cc1cccc(C(=O)OCc2ccccc2)c1N`, the melting point lay within 42 to 43 °C.

In turn, `CCOC(=O)CC(NC(=O)C=CS(=O)c1ccccc1)C(=O)OCC` (stereo not drawn) had a melting point of 121 to 123 °C. As for `OC1CCN(c2ncc3ncnc(Nc4ccc(F)c(Cl)c4)c3n2)CC1`, the melting point was in the range of 243 to 246 °C. Consider `CC(=O)N1CCc2sc(/C=C3/C(=O)N4C(C(=O)O)=CS[C@H]34)cc2C1`, for which the melting point was 362 °C. Under `COC(=O)c1nc2cc(C(F)(F)F)ccc2c(O)c1C(=O)OC` stands 210 °C; under `COC(=O)C1(C(F)F)c2ccccc2Oc2ccccc21`, 101 °C; under `Nc1ccc2cccc(Nc3cc(-c4ccc(C(F)(F)F)cc4)ncn3)c2n1`, 211 to 213 °C. With `COC(=O)COc1ccccc1Oc1cc(NC(C)=O)c(F)cc1Cl`, the melting point amounted to 139 °C. As for `CCOc1cc(C(CS(C)(=O)=O)N2C(=O)c3cccc(Cc4ccc[nH]4)c3C2=O)ccc1OC` (stereo not drawn), the melting point was in the range of 80 to 82 °C.

As to `Nc1cc(NS(=O)(=O)CCl)ccc1F`, the melting point lay within 128 to 129 °C. On to `Cc1ncn(-c2ccc([N+](=O)[O-])cc2F)n1`, for which the melting point lay within 105 to 107 °C. `COc1cc(O)c2c(=O)c(OC)c(-c3ccc(OC(=O)C(O)C(O)C(=O)O)c(OC)c3)oc2c1` (stereo not drawn): the melting point lay in the range of 179 to 180 °C. Under `O=c1c(Cc2ccccc2)c2n(c(=O)n1CCCCSc1cccc3nccn13)CCCS2(=O)=O` stands 53 to 54 °C; under `O=C(Nc1ccc2c(c1)OC(F)(F)O2)N1CC(c2ccc(Cl)cc2)=C(c2ccc(Cl)cc2)N1`, 150 to 155 °C; under `CCN(CC)CCOc1ccc(NC(=O)C#Cc2ccc(C(F)(F)F)cc2Cl)cc1N`, 127 to 130 °C. Under `O=C(OCc1ccccc1)N1CCc2c(sc3nc(CN4C(=O)CCC4=O)c(Cl)c(-c4ccc(OCc5ccccc5)cc4)c23)C1` stands 238 to 239 °C; under `Oc1c2c3c(ccnc3c3ccccc13)CCC2`, 260 °C. On to `CC(=O)Nc1ccc(C[C@H](NC(=O)N(CCOC(C)=O)CCc2ccccc2)C(=O)NCCN(C)C)cc1`, for which the melting point was 87 to 100 °C.

For the compound `CCCC(=O)c1cc2c(c(Cl)c1Cl)OC(C(=O)O)C2` (stereo not drawn), the melting point is 124 to 125 °C. Under `CCOC(=O)c1nc(-c2nccs2)cs1` stands 143 to 145 °C; under `CCOc1ccc(S(=O)(=O)N(Cc2ccc(C(=O)OC)cc2)[C@@H](CC)c2ccccc2)cc1`, 102 to 104 °C; under `N#CSCC(=O)c1cccc(Br)c1`, 91 to 93 °C. Under `CN1CCC(c2c[nH]c3ccc(-c4cccs4)cc23)C1` (stereo not drawn) stands 166 to 168 °C; under `N=C(N)NC(=O)Cn1c(Cc2ccco2)ccc1-c1ccccc1`, 80 to 82 °C; under `O=C(O)c1cc(OCC(F)(F)F)ccc1OCC(F)(F)F`, 99 to 101 °C.

Compound `CN(C)C1(c2ccccc2Cl)C(=O)N(Cc2ccc(C(=O)NC(C)(C)C)cc2)c2ccc(Cl)cc21` (stereo not drawn) yielded a melting point of 177 to 178 °C.

Compound `OCCN1CCn2c1nc1ccccc12` displayed a melting point of 158 to 160 °C. Compound `COc1cccc(Oc2c(NS(=O)(=O)c3ccc(C(C)(C)C)cc3)nc(C(=O)Nc3ccccc3)nc2OCCO)c1` yielded a melting point of 143 °C.

Regarding `C#CCN(C)CC(O)c1cccc(O)c1` (stereo not drawn), the melting point lay in the range of 102 to 103 °C. `CC(C)NC(C)CC1=C2c3ccc(O)cc3CCC2CCNC1=O` (stereo not drawn): the melting point is 202 to 204 °C. As for `COc1ccc2c(c1)CCc1cc(Nc3ccc(F)cc3F)ccc1C2=O`, the melting point worked out at 157 °C.

On to `CCN1C(=O)C(C)(C)C(=O)N(C)c2cc(CN(CCn3ccc4ccsc4c3=O)Cc3cccnc3C)ccc21`, for which the melting point lay in the range of 125 to 127 °C.

The compound `COc1ccc(C=Cc2cccc(C(=O)O)c2)cc1OC1CCCC1` gave a melting point of 93 to 94 °C. `CCOC(=O)C1=Cc2c(F)cccc2OC1C(F)(F)F` (stereo not drawn) showed a melting point of 45.5 to 47 °C. `c1ccc(CN2CC3(COc4cc5c(cc43)CCO5)c3c(-c4cncnc4)cccc32)nc1` (stereo not drawn) showed a melting point of over 200 °C. Under `CCOC(=O)C1(F)C(=O)NC(=O)NC1O/N=C\c1ccco1` (stereo not drawn) stands 152 to 153 °C; under `O=C1N(CCCCN2CCN(c3n[nH]c4cc(F)ccc34)CC2)CSC12CCCC2`, 132 to 134 °C; under `Cc1[nH]ccc(=O)c1OCc1ccccc1`, 162 to 164 °C. The result for `COc1ccccc1-n1c(-c2ccc(N(C)C)cc2)nnc1C(C)O` (stereo not drawn) reads 145 °C.

The values are drawn from a melting point compilation (Tetko et al.; mined from patent text by program, amines drawn as free bases though some values may be those of a salt).
